What all share (experiment): KINOMEscan competition binding
Holding throughout (conditions): compound 10.0 µM

Test [1] deals with FLT3 (human), P36888 [ITD].
In another test the target is NUAK2 (human) (UniProt Q9H093).
Another test has as its target RPS6KA6 KD2 (human) (UniProt Q9UK32).
The target in a further test is MKNK2 (human) (UniProt Q9HBH9).
A further test concerns the target KIT (human) (UniProt P10721).
Test [2] relates to FLT3 (human), P36888 [K663Q].
Test [3] has as its system RET (human), P07949 [V804L].
The target in test [4] is TYK2 JH1 catalytic (human) (UniProt P29597).
A further test addresses FLT3 (human) (UniProt P36888).
The target of the next test is DCLK1 (human) (UniProt O15075).
Chain of DCLK1 (human) (O15075 whole entry, looked up): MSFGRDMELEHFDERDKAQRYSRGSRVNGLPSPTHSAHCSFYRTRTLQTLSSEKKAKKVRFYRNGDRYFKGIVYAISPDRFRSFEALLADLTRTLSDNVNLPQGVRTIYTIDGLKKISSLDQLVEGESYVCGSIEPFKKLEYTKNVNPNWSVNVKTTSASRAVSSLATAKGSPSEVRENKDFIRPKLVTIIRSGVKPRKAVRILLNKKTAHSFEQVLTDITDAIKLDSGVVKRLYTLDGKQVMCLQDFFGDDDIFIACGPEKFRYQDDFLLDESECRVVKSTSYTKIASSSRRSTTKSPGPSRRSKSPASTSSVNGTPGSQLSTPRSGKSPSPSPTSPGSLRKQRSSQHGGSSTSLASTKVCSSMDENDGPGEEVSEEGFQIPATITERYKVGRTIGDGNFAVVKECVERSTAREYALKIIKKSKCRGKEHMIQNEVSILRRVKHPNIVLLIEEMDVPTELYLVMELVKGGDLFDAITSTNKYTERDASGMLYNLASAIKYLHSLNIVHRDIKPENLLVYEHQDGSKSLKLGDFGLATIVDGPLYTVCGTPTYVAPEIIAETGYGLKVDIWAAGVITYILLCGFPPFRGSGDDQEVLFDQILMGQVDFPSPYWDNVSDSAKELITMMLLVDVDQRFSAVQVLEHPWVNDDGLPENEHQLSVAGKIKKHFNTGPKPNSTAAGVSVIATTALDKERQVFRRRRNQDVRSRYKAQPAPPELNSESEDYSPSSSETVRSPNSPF
The target of the next test is TAOK3 (human) (UniProt Q9H2K8).
For a further test, the target named is GAK (human) (UniProt O14976).
A further test deals with PDGFRB (human) (UniProt P09619).
For another test, the target named is NUAK1 (human) (UniProt O60285).
The next test deals with AURKA (human) (UniProt O14965).
The target of a further test is AURKB (human) (UniProt Q96GD4).
Another test addresses PIK3CG (human) (UniProt P48736).
The target of a further test is PIK3CD (human) (UniProt O00329).
A further test addresses AURKC (human) (UniProt Q9UQB9).
A further test addresses CSF1R (human) (UniProt P07333).
Another test has as its target PDGFRA (human) (UniProt P16234).
The next test deals with ROS1 (human) (UniProt P08922).
Another test addresses DCLK2 (human) (UniProt Q8N568).
The next test addresses ACVR1 (human) (UniProt Q04771).
Another test has as its target MAP3K3 (human) (UniProt Q99759).
A further test concerns the target TNK1 (human) (UniProt Q13470).
The target in a further test is PIK3CA (human) (UniProt P42336).
Another test has as its target PRKAA1 (human) (UniProt Q13131).
The next test deals with MAPK7 (human) (UniProt Q13164).
Chain of MAPK7 (human) (Q13164 whole entry, looked up): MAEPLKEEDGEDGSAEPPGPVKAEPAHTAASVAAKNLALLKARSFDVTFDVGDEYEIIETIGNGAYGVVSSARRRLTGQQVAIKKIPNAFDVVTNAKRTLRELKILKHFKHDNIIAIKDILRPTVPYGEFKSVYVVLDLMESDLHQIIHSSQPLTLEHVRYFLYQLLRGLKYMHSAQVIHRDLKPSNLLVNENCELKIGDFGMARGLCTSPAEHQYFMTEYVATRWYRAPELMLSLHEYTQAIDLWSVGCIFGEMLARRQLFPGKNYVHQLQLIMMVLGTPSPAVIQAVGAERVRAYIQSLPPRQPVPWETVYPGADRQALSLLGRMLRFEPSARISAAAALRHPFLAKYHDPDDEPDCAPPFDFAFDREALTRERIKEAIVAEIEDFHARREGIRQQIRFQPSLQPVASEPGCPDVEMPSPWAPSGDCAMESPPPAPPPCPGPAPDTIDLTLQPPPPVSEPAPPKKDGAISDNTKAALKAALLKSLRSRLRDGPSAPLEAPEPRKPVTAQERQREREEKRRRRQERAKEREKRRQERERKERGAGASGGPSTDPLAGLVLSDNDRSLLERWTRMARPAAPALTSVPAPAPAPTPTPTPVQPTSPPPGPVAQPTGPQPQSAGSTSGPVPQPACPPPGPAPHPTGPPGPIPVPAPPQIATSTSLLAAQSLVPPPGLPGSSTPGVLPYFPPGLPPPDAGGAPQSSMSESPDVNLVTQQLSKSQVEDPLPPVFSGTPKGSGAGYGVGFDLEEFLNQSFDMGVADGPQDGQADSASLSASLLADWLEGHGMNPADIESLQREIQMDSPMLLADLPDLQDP
The target in the next test is PRKD3 (human) (UniProt O94806).
The target in another test is PIP5K1A (human) (UniProt Q99755).
Chain of PIP5K1A (human) (Q99755 whole entry, looked up): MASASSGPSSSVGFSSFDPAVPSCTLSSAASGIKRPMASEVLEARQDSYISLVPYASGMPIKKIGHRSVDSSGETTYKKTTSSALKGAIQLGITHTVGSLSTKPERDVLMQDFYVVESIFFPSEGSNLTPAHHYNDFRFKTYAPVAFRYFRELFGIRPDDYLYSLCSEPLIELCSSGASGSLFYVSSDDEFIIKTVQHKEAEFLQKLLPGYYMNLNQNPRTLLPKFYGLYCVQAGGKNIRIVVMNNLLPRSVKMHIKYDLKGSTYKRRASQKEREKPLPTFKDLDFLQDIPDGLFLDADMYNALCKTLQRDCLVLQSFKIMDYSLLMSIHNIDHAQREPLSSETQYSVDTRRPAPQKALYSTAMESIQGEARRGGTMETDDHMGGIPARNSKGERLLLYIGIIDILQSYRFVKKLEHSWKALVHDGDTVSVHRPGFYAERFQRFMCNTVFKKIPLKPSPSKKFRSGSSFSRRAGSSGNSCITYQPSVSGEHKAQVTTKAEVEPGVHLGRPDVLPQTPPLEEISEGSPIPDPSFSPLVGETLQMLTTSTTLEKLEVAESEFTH
Test [5] has as its system KIT (human), P10721 [V559D].
Test [6] has as its system ABL1 (human), P00519 [T315I].
The target in the next test is STK16 (human) (UniProt O75716).
In the next test the target is PRKD1 (human) (UniProt Q15139).
The target in a further test is BMPR1B (human) (UniProt O00238).
Another test deals with RPS6KA1 KD2 (human) (UniProt Q15418).
A further test concerns the target CLK2 (human) (UniProt P49760).
The target in a further test is TAOK1 (human) (UniProt Q7L7X3).
The target of another test is PLK1 (human) (UniProt P53350).
Chain of PLK1 (human) (P53350 whole entry, looked up): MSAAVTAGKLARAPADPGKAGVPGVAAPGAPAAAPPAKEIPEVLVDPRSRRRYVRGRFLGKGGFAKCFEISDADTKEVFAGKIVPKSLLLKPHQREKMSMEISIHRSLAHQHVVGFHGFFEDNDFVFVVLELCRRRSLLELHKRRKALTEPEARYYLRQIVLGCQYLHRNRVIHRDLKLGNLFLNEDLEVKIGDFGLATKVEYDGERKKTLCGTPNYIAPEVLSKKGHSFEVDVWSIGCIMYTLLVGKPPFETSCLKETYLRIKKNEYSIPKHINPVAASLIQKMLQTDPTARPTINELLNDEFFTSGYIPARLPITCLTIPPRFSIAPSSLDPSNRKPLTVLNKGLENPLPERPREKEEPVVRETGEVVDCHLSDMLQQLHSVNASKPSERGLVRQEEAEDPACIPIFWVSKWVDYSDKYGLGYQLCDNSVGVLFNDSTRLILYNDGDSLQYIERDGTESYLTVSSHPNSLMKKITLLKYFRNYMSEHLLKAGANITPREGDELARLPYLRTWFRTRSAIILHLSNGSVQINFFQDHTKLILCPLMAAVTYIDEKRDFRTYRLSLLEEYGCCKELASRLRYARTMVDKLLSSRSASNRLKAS
A further test has as its target FGFR4 (human) (UniProt P22455).
A further test concerns the target TNK2 (human) (UniProt Q07912).
The test system of test [7] is KIT (human), P10721 [V559D/V654A].
For another test, the target named is CAMKK2 (human) (UniProt Q96RR4).
A further test addresses PLK4 (human) (UniProt O00444).
For a further test, the target named is FLT4 (human) (UniProt P35916).
For the next test, the target named is SRPK1 (human) (UniProt Q96SB4).
For a further test, the target named is MARK4 (human) (UniProt Q96L34).
Test [8] deals with RET (human), P07949 [M918T].
Chain of RET (human), P07949 [M918T] (P07949 whole entry M918T, looked up): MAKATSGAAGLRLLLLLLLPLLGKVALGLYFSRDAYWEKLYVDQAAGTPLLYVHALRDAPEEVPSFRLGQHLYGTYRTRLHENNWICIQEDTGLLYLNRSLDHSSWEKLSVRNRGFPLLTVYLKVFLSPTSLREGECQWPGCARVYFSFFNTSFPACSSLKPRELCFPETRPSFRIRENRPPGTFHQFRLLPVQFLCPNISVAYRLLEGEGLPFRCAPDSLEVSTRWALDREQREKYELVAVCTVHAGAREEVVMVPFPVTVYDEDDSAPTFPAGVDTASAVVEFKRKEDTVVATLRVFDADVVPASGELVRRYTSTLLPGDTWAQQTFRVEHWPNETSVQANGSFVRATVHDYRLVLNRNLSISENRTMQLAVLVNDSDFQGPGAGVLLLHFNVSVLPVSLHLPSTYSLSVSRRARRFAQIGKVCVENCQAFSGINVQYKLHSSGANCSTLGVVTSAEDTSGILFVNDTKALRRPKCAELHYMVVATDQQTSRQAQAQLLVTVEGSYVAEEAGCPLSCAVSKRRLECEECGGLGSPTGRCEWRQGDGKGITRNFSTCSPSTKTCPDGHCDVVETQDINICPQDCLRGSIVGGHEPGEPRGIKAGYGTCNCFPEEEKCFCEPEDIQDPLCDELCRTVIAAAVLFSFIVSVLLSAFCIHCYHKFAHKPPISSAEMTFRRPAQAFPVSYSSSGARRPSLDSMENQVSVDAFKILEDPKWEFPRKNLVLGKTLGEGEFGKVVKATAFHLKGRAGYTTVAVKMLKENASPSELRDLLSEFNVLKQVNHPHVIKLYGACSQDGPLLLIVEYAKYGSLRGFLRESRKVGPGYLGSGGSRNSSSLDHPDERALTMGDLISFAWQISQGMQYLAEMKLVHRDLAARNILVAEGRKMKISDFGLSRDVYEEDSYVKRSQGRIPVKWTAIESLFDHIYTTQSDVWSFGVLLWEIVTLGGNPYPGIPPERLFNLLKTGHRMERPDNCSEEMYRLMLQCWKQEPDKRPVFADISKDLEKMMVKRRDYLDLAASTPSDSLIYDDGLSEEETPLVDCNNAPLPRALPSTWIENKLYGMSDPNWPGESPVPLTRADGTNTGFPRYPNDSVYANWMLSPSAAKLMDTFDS
In the next test the target is STK33 (human) (UniProt Q9BYT3).
A further test has as its target BRSK2 (human) (UniProt Q8IWQ3).
A further test deals with MERTK (human) (UniProt Q12866).
For the next test, the target named is PRKCD (human) (UniProt Q05655).
In the next test the target is PKN1 (human) (UniProt Q16512).
The target in a further test is PRKCQ (human) (UniProt Q04759).
Another test concerns the target NLK (human) (UniProt Q9UBE8).
Another test addresses PLK3 (human) (UniProt Q9H4B4).
The next test has as its target MYLK (human) (UniProt Q15746).
A further test deals with TTK (human) (UniProt P33981).

Chain of RET (human), P07949 [V804L] (P07949 whole entry V804L, looked up): as the sequence (P07949 whole entry M918T, looked up) above, with V804L, T918M counted along it
Chain of DCLK2 (human) (Q8N568 whole entry, looked up): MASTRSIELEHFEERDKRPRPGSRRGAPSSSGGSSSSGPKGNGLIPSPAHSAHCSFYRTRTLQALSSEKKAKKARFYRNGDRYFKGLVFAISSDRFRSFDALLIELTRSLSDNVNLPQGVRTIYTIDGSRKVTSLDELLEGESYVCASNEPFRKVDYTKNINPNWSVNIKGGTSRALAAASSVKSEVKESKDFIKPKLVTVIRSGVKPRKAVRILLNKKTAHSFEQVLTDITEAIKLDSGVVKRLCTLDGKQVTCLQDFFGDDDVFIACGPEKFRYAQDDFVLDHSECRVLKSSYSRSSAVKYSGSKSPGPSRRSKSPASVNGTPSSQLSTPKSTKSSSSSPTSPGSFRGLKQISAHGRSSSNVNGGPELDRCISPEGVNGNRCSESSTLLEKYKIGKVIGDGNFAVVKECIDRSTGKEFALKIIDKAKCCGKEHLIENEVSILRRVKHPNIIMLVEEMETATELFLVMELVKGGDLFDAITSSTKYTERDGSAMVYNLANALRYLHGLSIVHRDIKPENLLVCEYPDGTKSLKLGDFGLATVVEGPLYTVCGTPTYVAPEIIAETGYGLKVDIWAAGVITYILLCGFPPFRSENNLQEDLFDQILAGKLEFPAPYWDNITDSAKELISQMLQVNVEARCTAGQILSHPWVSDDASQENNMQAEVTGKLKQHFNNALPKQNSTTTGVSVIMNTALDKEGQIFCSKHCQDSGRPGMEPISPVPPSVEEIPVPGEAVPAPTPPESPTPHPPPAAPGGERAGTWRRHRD
Chain of AURKC (human) (Q9UQB9 whole entry, looked up): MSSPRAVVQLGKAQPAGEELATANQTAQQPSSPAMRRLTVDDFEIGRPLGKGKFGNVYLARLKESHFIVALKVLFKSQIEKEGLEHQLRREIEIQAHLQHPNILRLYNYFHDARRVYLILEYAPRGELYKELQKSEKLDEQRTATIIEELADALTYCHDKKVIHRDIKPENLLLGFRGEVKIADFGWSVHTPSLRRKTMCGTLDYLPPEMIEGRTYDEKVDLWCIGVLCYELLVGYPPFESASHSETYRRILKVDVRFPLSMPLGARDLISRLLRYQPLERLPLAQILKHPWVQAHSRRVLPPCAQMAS

On to `CN1C(=O)c2ccccc2N(C)c2nc(Nc3ccc(N4CCC(O)CC4)cn3)ncc21`, for which the kinase still bound, per cent of control stood at 33% in test [1]; 22% on NUAK2 (human); 30% on RPS6KA6 KD2 (human); 1.6% at MKNK2 (human); 3.1% at KIT (human); 12% in test [2]. Further, the kinase still bound, per cent of control in test [3] amounted to 34%; in test [4] it was 18%; at FLT3 (human), 8.1%; at DCLK1 (human), 0.3%; on TAOK3 (human) it was 0.4%; at GAK (human) it was 33%. The kinase still bound, per cent of control at PDGFRB (human) was determined as 2.6%; on NUAK1 (human), 30%; at AURKA (human), 8.2%; on AURKB (human), 25%; at PIK3CG (human), 2.2%; at PIK3CD (human) it was 33%. For the same compound, the kinase still bound, per cent of control is 3.7% on AURKC (human); 14% at CSF1R (human); 8% at PDGFRA (human); 28% at ROS1 (human); 0.5% at DCLK2 (human); 29% at ACVR1 (human). Also, the kinase still bound, per cent of control on MAP3K3 (human) turned out to be 2.2%; on TNK1 (human), 0.6%; on PIK3CA (human), 33%; on PRKAA1 (human), 23%; at MAPK7 (human) it was 0%; at PRKD3 (human), 20%. In addition, the kinase still bound, per cent of control at PIP5K1A (human) is 26%; in [5], 1.8%; in test [6], 19%; at STK16 (human), 31%; on PRKD1 (human), 21%; on BMPR1B (human) it was 19%. The kinase still bound, per cent of control amounted to 34% on RPS6KA1 KD2 (human); 32% at CLK2 (human); 1% at TAOK1 (human); 24% on PLK1 (human); 25% at FGFR4 (human); 31% at TNK2 (human). Besides, the figures for the kinase still bound, per cent of control (in test [7]; at CAMKK2 (human); at PLK4 (human)) were 26%, 31% and 7.2%, respectively.
Consider `COc1cc(C(=O)NC2CCN(C)CC2)ccc1Nc1ncc2c(n1)N(C1CCCC1)CCC(=O)N2C(C)C`, for which the kinase still bound, per cent of control at FLT4 (human) turned out to be 0%; at SRPK1 (human), 0%; in test [3], 0%; on MARK4 (human) it was 0%; in test [8] it was 0%; at PIP5K1A (human) it was 6.4%. Besides, the kinase still bound, per cent of control at STK33 (human) turned out to be 32%; on BRSK2 (human) it was 0%; at PLK1 (human) it was 17%; at MERTK (human) it was 34%; at PRKCD (human), 0%.
As to `COc1cc(C(N)=O)ccc1Nc1ncc2c(n1)N(C1CCCC1)[C@@H]1CCC[C@@H]1C(=O)N2C`, the kinase still bound, per cent of control at PKN1 (human) was 27%; on PRKCQ (human) it was 31%; at NLK (human), 25%; at DCLK1 (human) it was 29%; on PLK3 (human), 1.7%; at GAK (human), 33%. Besides, the kinase still bound, per cent of control at MYLK (human) was found to be 25%; at DCLK2 (human), 24%; on MAPK7 (human), 0.15%; on TTK (human), 13%; at PLK1 (human), 16%.

The values above are taken from the kinase profiling compilation of Christmann-Franck et al. (2016).
